Laboratory results: patent publication US7892756B2, “Human salty taste receptor and methods of modulating salty taste perception” (Monell Chemical Senses Center, priority 2006, dated 2011)
Entries after “also recorded” stand apart in the source; their conditions may differ. Read-outs that look alike come from different tables or passages of the source.

What was measured:
[1] = tested on: salty taste response in humans; conditions: in vivo, cited from earlier work
[2] = target: T1, ENaC delta (δ) subunit (Homo sapiens, UniProt P51172); conditions: delta versus alpha subunit; cited from earlier work
T1 sequence (P51172 1-802): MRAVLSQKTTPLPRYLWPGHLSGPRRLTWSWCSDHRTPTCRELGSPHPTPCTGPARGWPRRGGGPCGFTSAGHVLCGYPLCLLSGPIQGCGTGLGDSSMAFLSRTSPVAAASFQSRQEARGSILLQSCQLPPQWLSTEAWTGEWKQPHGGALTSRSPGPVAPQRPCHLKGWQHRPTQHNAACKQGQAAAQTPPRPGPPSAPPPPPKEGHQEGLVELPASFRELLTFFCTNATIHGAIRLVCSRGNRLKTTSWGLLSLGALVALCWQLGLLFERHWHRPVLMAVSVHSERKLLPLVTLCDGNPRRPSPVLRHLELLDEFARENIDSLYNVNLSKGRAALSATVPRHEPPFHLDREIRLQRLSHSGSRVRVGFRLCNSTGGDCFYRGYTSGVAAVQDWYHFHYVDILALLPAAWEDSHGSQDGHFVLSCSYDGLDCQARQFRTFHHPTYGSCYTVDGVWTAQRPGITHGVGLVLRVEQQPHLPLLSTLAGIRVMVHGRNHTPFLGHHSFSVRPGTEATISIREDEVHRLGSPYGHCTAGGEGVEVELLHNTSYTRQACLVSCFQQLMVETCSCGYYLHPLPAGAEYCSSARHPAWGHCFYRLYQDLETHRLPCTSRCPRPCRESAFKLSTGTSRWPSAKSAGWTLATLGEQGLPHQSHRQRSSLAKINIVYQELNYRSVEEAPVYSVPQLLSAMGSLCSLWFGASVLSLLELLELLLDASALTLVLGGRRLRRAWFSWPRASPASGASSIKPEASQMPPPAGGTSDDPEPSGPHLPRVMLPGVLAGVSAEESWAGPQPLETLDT
T1 sequence (P51168 1-640 partner): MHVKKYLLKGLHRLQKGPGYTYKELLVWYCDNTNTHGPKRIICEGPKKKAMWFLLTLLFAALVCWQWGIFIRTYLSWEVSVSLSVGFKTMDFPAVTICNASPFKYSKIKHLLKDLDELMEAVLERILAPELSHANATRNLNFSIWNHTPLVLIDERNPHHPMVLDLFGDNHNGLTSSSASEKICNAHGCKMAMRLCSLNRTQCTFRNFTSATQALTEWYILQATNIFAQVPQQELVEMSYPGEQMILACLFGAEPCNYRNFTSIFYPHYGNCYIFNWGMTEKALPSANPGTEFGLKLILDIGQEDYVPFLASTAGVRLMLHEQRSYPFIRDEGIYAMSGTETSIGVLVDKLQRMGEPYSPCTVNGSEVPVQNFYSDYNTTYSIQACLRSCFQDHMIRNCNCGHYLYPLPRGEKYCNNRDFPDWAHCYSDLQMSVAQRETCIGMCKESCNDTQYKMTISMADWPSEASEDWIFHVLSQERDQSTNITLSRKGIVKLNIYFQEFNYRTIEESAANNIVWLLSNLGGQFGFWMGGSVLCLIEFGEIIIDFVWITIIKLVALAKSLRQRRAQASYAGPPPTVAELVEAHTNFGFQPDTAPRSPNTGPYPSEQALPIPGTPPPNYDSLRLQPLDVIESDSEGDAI
T1 sequence (P51170 1-649 partner): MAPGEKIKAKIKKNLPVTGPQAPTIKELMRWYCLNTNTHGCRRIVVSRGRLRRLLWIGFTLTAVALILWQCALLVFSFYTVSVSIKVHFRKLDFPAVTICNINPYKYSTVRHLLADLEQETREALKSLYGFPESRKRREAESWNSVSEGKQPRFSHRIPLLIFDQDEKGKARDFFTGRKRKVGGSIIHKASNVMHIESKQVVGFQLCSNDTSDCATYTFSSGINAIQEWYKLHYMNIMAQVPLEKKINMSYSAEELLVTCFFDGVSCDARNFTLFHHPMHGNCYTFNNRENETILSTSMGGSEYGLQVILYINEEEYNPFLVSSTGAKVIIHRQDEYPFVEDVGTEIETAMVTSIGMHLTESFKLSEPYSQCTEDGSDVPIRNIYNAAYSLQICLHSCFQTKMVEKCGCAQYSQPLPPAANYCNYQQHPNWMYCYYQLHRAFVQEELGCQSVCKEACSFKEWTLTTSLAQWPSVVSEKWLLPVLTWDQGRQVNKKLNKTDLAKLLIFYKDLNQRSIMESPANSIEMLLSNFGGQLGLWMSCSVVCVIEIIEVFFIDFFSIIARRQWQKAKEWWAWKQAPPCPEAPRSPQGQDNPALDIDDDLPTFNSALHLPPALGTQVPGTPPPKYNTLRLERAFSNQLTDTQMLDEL

[3] = target: T2, ENaC composed of human delta, beta, gamma (Homo sapiens, UniProt P51172, C696Y); experiment: Amiloride inhibition of ENaC of different composition (FIG. 4); assay type: biochemical; conditions: gamma ENaC compared with human alpha
T2 sequence (P51172 1-638 isoform P51172-1 C532Y): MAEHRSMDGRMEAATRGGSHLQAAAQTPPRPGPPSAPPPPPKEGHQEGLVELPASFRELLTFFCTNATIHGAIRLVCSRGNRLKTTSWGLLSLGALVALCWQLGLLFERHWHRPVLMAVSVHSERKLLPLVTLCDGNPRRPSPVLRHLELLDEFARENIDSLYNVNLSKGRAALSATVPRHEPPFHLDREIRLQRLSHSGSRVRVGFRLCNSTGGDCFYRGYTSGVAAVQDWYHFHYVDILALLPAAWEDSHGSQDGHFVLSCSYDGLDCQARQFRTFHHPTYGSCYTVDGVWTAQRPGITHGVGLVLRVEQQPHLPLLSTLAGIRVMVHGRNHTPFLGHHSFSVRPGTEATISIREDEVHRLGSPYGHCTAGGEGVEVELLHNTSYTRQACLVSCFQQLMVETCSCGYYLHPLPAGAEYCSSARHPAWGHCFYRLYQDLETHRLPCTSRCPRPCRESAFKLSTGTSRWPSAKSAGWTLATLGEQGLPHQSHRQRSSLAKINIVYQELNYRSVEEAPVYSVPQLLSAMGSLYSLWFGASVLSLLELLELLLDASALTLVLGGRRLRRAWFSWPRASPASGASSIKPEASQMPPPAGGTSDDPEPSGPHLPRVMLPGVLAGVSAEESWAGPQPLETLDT
T2 sequence (P51168 1-640 partner): T1 sequence (P51168 1-640 partner)
T2 sequence (P51170 1-649 partner): T1 sequence (P51170 1-649 partner)

[4] = tested on: catfish putative taste receptor for L-arginine; experiment: Single channel recording of purified receptor reconstituted in planar lipid bilayers (FIG. 9); assay type: biochemical; conditions: transmembrane potential −100 mV
Source text: Proteoliposomes containing purified receptor protein from catfish taste epithelium are fused to planar lipid bilayers. Control records (trace shown in part A) were obtained after addition of proteolipisomes to the membrane bathing solution before addition of L-Arg. […] Transmembrane potential was −100 mV. Traces shown in all panels are continuous records of that specific condition.
This example, in part, describes the extraction, purification, and membrane-reconstitution of a taste receptor for L-arginine (L-arg) from catfish. The methods, which are published and described in Grosvenor, W et al. (2004) BMC Neuroscience 5:25, can be readily adapted for reconstitution of ENaC, ENaC subunits, and salty taste receptors in lipid membranes as described below. The catfish has served as a model for taste receptor studies because the receptors are very sensitive to certain amino acids. One such amino acid is L-arg. Like the ENaC, the taste receptor for L-arg in catfish is an ion channel. Parallel approaches are utilized in solubilizing the L-arg and ENaC-type receptors. The receptors differ primarily by origin—the L-arg receptor is purified from catfish taste tissue and the ENaC subunits are synthesized by a heterologous cell culture expression system. […]

[5] = tested on: L-ArgR (native taste receptor for L-arginine); experiment: Taste nerve recordings from the animal, L-ArgR in its native state; assay type: in vivo, catfish
Source text: The properties of the L-ArgR as measured in the bilayer are very similar to those observed through taste nerve recordings from the animal, when the L-ArgR is in its native state.

## N=C(N)N [guanidine]
[1]
  effect on salty taste response in humans: salty taste enhancers

## [Cl-].[Na+] [NaCl, sodium chloride]
[1]
  concentration at which a salty taste is imparted: above 50 mM

## [H]/N=C(\N/C(=N/[H])NCCCCCCNC(=N)NC(=N)Nc1ccc(Cl)cc1)Nc1ccc(Cl)cc1 [chlorhexidine]
[1]
  effect on salty taste response in humans: inhibitor of the salty taste response in humans

## N=C(N)NCCCC[C@H](N)C(=O)O [homoarginine]
[1]
  effect on salty taste response in humans: salty taste enhancers

## N=C(N)NC(=O)c1nc(Cl)c(N)nc1N [amiloride]
[2]
  lower affinity for amiloride of delta subunit relative to alpha subunit: 30 fold
[3]
  amiloride sensitivity of delta-containing ENaC relative to alpha, beta, gamma ENaC: less so than the alpha; also recorded: less sensitive to amiloride
[1]
  effect on salty taste response in humans: inability of amiloride to inhibit sodium-induced salty taste response in humans; also recorded: not sensitive to amiloride

## N=C(N)NCCC[C@H](N)C(=O)O [L-Arg, L-arginine]
[4]; 10 μM, cis-side of bilayer
  single channel activity after addition to the cis-side: evoked regular periodic channel activity
[1]; listed as L-arginine
  effect on salty taste response in humans: equally effective
[5]
  sensitivity of the native receptor: in the tenths of uM

## N=C(N)NCCC[C@H](N)C(=O)O [arginine]
[1]
  effect on salty taste response in humans: salty taste enhancers

## N=C(N)NCCC[C@@H](N)C(=O)O [D-Arg, D-arginine]
[4]; 100 μM, cis-side, after 10 μM L-Arg
  single channel activity after addition to the cis-side following L-Arg: activity ceased
[1]
  effect on salty taste response in humans: equally effective
[5]
  effect on the native receptor: inhibits the receptor
